Experimental data taken from ChEMBL document CHEMBL5465560, “Selectivity Literature for EUbOPEN Chemogenomic Library” (2024).

Assays:
[1] = target: T1, cAMP-dependent protein kinase catalytic subunit PRKX (Homo sapiens) (UniProt P51817); experiment: Selectivity interaction (Kinase screening (Nanosyn)) EUB0000604a PRKX
T1 sequence (whole entry): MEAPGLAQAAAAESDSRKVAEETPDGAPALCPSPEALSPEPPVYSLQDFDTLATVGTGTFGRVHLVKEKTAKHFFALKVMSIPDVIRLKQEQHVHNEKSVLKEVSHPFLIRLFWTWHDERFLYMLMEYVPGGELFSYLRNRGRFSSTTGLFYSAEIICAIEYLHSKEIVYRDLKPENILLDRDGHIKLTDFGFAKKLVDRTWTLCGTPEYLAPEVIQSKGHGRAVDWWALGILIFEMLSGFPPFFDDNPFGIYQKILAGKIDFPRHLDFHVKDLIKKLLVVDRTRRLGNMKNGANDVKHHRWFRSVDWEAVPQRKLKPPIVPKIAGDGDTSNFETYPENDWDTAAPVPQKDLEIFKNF

[2] = target: T2, 5-hydroxytryptamine receptor 3A (Homo sapiens) (UniProt P46098); experiment: Selectivity interaction (Panel of kinases, GPCRs, ion channels and transporters (enzymatic assay)) EUB0000223bCl HTR3A
T2 sequence (whole entry): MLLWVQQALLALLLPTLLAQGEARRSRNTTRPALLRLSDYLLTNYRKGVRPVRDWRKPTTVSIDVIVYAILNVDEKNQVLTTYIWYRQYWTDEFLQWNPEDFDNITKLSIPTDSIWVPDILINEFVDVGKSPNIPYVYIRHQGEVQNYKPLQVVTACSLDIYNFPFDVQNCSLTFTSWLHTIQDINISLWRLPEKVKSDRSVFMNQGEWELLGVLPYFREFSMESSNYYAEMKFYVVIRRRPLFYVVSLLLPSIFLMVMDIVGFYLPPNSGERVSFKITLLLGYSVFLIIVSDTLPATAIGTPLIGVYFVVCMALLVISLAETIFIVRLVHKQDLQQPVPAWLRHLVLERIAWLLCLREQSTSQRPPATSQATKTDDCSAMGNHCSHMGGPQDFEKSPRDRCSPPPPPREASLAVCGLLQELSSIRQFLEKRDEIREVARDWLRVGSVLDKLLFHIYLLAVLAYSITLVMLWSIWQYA

[3] = target: T3, Serine/threonine-protein kinase TBK1 (Homo sapiens) (UniProt Q9UHD2); experiment: Selectivity interaction (ActivX KiNativ screen (kinase selectivity in THP-1 cell lysates)) EUB0000639a TBK1; format: subcellular; conditions: lysate
T3 sequence (whole entry): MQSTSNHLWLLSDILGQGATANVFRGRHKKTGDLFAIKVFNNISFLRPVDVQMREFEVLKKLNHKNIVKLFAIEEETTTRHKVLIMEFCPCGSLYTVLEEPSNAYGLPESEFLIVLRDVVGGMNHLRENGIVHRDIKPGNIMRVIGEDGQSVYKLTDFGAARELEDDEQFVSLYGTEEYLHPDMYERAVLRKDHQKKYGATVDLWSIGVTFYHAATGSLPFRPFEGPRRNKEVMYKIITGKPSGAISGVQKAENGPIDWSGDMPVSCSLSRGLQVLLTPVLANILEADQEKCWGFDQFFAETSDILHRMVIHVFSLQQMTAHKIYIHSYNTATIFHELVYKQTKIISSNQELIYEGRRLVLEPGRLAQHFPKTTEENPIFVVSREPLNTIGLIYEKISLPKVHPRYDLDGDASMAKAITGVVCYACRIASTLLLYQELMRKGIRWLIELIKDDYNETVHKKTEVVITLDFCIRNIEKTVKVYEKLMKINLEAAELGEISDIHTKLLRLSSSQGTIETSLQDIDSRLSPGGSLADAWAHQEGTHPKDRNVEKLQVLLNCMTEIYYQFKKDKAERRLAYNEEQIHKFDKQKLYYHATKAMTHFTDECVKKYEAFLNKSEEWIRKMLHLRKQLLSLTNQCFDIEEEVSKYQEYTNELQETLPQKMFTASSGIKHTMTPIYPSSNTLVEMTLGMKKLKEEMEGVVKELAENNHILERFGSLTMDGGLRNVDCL

[4] = target: Serine/threonine-protein kinase PLK1 (Homo sapiens, UniProt P53350); experiment: Selectivity interaction (ActivX KiNativ screen (kinase selectivity in THP-1 cell lysates)) EUB0000639a PLK1; format: subcellular; conditions: lysate, at 0.04 µM
Sequence of Serine/threonine-protein kinase PLK1 (P53350 whole entry): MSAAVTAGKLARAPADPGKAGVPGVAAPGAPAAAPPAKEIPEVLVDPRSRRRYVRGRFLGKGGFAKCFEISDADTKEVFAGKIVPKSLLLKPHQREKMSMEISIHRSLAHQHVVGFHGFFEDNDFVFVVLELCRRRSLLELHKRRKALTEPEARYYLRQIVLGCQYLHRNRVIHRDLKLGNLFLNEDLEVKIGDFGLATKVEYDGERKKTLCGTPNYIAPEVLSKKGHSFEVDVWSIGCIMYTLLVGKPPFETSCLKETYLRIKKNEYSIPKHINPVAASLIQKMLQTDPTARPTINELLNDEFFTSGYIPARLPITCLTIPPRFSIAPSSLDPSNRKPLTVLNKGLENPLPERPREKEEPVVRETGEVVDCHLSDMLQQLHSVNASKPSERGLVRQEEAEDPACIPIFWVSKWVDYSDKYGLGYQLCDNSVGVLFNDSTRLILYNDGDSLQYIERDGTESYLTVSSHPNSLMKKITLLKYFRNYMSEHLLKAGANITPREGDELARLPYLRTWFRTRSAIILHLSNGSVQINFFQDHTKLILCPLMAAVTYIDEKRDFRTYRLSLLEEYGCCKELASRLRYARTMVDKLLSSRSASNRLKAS

[5] = target: T4, Serine/threonine-protein kinase Sgk2 (Homo sapiens) (UniProt Q9HBY8); experiment: Selectivity interaction (ActivX KiNativ screen (kinase selectivity in THP-1 cell lysates)) EUB0000639a SGK2; format: subcellular; conditions: lysate
T4 sequence (whole entry): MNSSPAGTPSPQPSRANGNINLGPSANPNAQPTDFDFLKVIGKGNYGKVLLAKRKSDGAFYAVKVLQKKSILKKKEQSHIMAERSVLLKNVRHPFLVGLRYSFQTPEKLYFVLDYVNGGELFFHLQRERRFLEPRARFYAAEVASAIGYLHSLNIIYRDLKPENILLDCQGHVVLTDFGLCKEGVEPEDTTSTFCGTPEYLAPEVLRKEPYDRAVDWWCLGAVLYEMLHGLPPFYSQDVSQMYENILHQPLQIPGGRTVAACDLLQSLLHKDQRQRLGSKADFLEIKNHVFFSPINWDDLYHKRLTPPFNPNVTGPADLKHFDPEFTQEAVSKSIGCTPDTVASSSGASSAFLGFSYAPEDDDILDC

[6] = target: Citron Rho-interacting kinase (Homo sapiens) (UniProt O14578); experiment: Selectivity interaction (KinomeScan (DiscoverX)) EUB0000092b CIT; conditions: at 10 µM
Sequence of Citron Rho-interacting kinase (Homo sapiens) (O14578 whole entry): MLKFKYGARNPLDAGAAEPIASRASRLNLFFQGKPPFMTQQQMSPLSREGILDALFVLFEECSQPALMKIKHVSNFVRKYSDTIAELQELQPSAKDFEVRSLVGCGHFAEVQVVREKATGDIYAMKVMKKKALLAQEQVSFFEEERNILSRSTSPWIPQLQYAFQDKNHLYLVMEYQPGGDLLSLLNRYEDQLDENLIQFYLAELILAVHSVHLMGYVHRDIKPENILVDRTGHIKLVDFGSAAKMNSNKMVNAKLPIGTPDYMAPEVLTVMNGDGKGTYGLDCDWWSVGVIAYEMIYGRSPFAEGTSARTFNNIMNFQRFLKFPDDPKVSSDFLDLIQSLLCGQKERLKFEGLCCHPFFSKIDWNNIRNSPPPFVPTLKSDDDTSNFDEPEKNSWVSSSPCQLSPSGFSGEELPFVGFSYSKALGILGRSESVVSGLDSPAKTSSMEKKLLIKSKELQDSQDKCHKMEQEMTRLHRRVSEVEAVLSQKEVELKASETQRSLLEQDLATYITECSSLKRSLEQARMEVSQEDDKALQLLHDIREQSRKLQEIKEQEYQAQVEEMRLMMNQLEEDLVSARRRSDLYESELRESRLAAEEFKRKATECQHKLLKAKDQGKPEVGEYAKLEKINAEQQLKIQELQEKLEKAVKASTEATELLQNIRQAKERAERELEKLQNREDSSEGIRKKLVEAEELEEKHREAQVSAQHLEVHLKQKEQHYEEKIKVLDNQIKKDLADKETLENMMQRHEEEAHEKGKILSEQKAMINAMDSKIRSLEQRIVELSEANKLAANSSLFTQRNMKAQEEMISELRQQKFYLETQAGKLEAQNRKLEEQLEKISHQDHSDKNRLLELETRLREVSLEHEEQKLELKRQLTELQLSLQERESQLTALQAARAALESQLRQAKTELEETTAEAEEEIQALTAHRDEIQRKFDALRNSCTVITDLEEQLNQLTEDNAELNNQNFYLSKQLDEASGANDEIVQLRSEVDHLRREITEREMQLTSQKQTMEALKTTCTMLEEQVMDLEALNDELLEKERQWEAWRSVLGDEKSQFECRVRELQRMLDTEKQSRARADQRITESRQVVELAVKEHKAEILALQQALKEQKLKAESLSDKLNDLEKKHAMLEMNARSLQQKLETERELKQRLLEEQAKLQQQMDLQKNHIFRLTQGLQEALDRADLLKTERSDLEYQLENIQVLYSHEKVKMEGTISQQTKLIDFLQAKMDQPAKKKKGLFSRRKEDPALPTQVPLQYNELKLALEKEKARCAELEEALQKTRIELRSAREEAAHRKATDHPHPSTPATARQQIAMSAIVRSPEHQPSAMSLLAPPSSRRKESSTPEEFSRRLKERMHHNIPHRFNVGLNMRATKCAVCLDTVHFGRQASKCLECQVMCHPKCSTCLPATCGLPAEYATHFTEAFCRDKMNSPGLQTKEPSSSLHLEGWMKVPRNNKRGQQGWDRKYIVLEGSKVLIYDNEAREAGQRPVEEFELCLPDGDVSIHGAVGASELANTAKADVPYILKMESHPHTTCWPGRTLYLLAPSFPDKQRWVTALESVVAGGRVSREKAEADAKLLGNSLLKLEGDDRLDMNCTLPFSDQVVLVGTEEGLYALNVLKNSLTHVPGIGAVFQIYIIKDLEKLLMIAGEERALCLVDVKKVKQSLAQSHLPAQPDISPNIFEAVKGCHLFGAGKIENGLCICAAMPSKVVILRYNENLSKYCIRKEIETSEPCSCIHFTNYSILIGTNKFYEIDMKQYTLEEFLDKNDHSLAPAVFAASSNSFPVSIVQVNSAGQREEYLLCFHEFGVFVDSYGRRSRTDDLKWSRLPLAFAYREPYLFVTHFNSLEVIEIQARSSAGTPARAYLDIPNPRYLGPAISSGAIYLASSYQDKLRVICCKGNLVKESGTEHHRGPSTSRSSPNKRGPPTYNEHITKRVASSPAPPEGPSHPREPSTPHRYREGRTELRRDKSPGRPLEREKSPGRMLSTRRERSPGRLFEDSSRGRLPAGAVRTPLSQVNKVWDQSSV

## Cc1cnc(Nc2ccc(F)cc2Cl)nc1-c1c[nH]c(C(=O)N[C@H](CO)c2cccc(Cl)c2)c1
[1]
  % of inhibition: 3%

## COc1cc(C(=O)N2CC[C@@H](O)[C@@H](N)C2)cc2nc(-c3cc4ccccc4n3CC3CC3)n(C)c12
[2]
  pXC50: 5.9 M

## CC[C@@H]1[C@H](F)C(=O)N[C@@H]1COc1nccc2cc(C(N)=O)c(OC)cc12 [ZIMLOVISERTIB]
[3]; at 0.01 µM
  % of inhibition: -51.9%
[3]; at 0.04 µM
  % of inhibition: -22.2%
[3]; at 0.2 µM
  % of inhibition: -29.9%
[3]; at 1 µM
  % of inhibition: 10%
[3]; at 5 µM
  % of inhibition: 26.2%
[4]
  % of inhibition: 3.7%
[5]; at 0.01 µM
  % of inhibition: -1%
[5]; at 0.04 µM
  % of inhibition: 3.1%
[5]; at 0.2 µM
  % of inhibition: -5.7%
[5]; at 1 µM
  % of inhibition: -1%
[5]; at 5 µM
  % of inhibition: -1.4%

## CCC(=O)N1CCN(c2ccc(-n3c(=O)ccc4cnc5ccc(-c6cnc7ccccc7c6)cc5c43)cc2C(F)(F)F)CC1
[6]
  % of control: 59%
